US4596875A, “Preparation of amides of 4-hydroxy-3-quinoline-carboxylic acid” (Roussel Uclaf, priority 1982, dated 1986)

How the values were obtained:
[1] = Analgesic activity: acetic acid-provoked stretching test based on Koster et al; format: in vivo; settings: Mus musculus; mice, oral, 30 minutes before intraperitoneal acetic acid (1% solution, 0.01 ml/g); fasted 24 hours; 15 minute observation; read-out: DA50 (dose which diminished the number of stretchings by 50% as compared to the controls)
Experimental: The test was based on that of Koster et al [Fed. Proc., Vol. 1B (1959), p. 412] in which mice received an intraperitoneal injection of acetic acid to provoke repeated stretching and twisting movements which persist for more than 6 hours. An analgesic prevents or reduces this syndrome which is considered to be an exteriorization of a diffuse abdominal pain. A 1% solution of acetic acid in water was used and the dose […] the syndrome under these conditions was 0.01 ml/g or 100 mg/kg of acetic acid.
The test compound was orally administered to the mice 30 minutes before the acetic acid injection and the mice had been fasting for the previous 24 hours. The stretchings were counted for each mouse for a 15 minute observation period after the acetic acid injection and the dose which diminished the number of stretchings by 50% as compared to the controls (DA50) was 1.2 and 0.3 mg/kg for the compounds of Example 2 and 10 respectively.

[2] = Anti-inflammatory activity: edema test provoked by carraghenin; format: in vivo; settings: Rattus norvegicus; male rats 130 to 150 g, oral, simultaneous with 0.05 ml of 1% carraghenin in rear paw; paw volume at 2,4,6,8 and 24 hours; read-out: DA50 (dose which reduced the edema by 50%)
Experimental: The anti-inflammatory activity was determined by the edema test provoked by carraghenin in male rats weighing about 130 to 150 g which received 0.05 ml of sterile suspension of 1% carraghenin into the tibiotarsien articulation of the rear paw. Simultaneously the test product in a suspension of 0.25% carboxymethyl cellulose and 0.02% of Tween was orally administered. The volume of the paw was measured before the test and then 2,4,6,8 and 24 hours later. The intensity of inflammation was maximum at 4 to 6 hours after the injection of carraghenin and the differences in paw volume of controls and treated animals were evidence of anti-inflammatory action. The DA50 dose which is that which reduced the edema by 50% was 15 and 12 mg/kg for the products of Examples 2 and 10 respectively.

Compound: CC(O)c1nc2c(C(F)(F)F)cccc2c(O)c1C(=O)Nc1nccs1 (stereo not shown) [Example 2, 4-hydroxy-2-(1-hydroxyethyl)-N-(2-thiazolyl)-8-trifluoromethyl-3-quinoline-carboxamide]
- ED50 [1]: 1.2 mg/kg
- ED50 [2]: 15 mg/kg

Compound: CCC(O)c1nc2c(C(F)(F)F)cccc2c(O)c1C(=O)Nc1nccs1 (stereo not shown) [Example 10, 4-hydroxy-2-(1-hydroxy-propyl)-N-(2-thiazolyl)-8-trifluoromethyl-3-quinoline-carboxamide]
- ED50 [1]: 0.3 mg/kg
- ED50 [2]: 12 mg/kg
